Data as given in US9132291B2, “Water-in-oil emulsion compositions containing gellan gum for topical delivery of active ingredients to the skin or mucosa” (DFB Technology, Ltd., priority 2010, dated 2015).
Structures can show the parent of a compound that is named as a salt.

Assay: In-Vitro Release Test (Franz Cell diffusion apparatus, 0.45 um Durapore HVLP membrane)
Format: physicochemical
Settings: 0.5-6 hours at 35° C.
Description: A 0.45 um Durapore HVLP membrane was used between the donor and receptor compartments. The receptor fluid used for analysis of lidocaine HCl was 0.2M NaH2PO4/EtOH/SDS (69/30/1). The receptor fluid used for analysis of metronidazole was 600 mL Ethanol (USP) and 400 mL Phosphate Buffer (1.3 g Na2HPO4 and 1.5 g KH2PO4). The receptor fluid used for analysis of allantoin was 10 mM KH2PO4 buffer (pH=4.7). The sampling of the receptor fluid was performed at 0.5, 1, 2, 4 and 6 hours at 35° C. The concentration of the released actives in the collected samples of the receptor fluid was determined by HPLC analysis. The HPLC mobile phase used for analysis of lidocaine HCl was 0.2M NaH2PO4/EtOH/SDS (69/30/1). The HPLC mobile phase used for analysis of metronidazole was 600 mL Ethanol (USP) and 400 mL Phosphate Buffer (1.3 g Na2HPO4 and 1.5 g KH2PO4). The HPLC mobile phase used for analysis of allantoin was ACN/Water (90/10).

Which “rate of release of allantoin” value (Formulas D, E, F (0%, 0.45%, 0.75% gellan gum; 0.1% allantoin) W/O emulsion, receptor fluid 10 mM KH2PO4 buffer pH 4.7, FIG. 3 and FIG. 4) does the source give for `NC(=O)NC1NC(=O)NC1=O` (stereo not drawn) [allantoin, Allantoin] here?
Its value is “increased as the concentration of gellan gum increased”.

With `CCN(CC)CC(=O)Nc1c(C)cccc1C` [lidocaine HCl, Lidocaine HCl] as the compound, how does the “rate of release of lidocaine HCl” value (Formulas G, H, I (0%, 0.45%, 0.75% gellan gum; 2.0% lidocaine HCl) W/O emulsion, receptor fluid 0.2M NaH2PO4/EtOH/SDS (69/30/1), FIG. 5 and FIG. 6) read?
Its value is “increased as the concentration of gellan gum increased”.

For `Cc1ncc([N+](=O)[O-])n1CCO` [metronidazole, Metronidazole], which “rate of release of metronidazole” value (Formulas A, B, C (0%, 0.45%, 0.75% gellan gum; 0.75% metronidazole) W/O emulsion, receptor fluid ethanol/phosphate buffer, FIG. 1 and FIG. 2) is on record?
Its value is “increased as the concentration of gellan gum increased”.
